Patent US6653300B2, “Pyrazole compounds useful as protein kinase inhibitors” (Vertex Pharmaceuticals Incorporated, priority 2000, dated 2003)

Experiments:
Aurora-2 = target: T1, Aurora-2 (Homo sapiens, UniProt O14965); assay: Ki determination for the inhibition of Aurora-2 (coupled enzyme assay); type: biochemical; conditions: 70 nM Aurora-2, 30° C.
T1 sequence (O14965 1-403): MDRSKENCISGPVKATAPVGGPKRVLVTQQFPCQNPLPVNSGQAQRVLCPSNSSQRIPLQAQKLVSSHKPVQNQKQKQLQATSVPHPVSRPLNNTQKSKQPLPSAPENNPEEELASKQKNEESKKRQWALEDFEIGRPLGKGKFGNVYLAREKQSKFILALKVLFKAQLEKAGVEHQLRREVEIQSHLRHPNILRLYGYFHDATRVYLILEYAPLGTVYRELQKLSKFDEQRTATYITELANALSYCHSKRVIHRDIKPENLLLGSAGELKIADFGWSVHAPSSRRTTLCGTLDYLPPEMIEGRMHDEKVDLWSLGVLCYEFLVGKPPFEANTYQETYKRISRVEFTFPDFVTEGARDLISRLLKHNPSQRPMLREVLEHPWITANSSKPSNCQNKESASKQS
Experimental: Compounds were screened in the following manner for their ability to inhibit Aurora-2 using a standard coupled enzyme assay (Fox et al (1998) Protein Sci 7, 2249).
To an assay stock buffer solution containing 0.1M HEPES 7.5, 10 mM MgCl2, 1 mM DTT, 25 mM NaCl, 2.5 mM phosphoenolpyruvate, […], 30 mg/ml pyruvate kinase, 10 mg/ml lactate dehydrogenase, […], and 800 μM peptide (LRRASLG, American Peptide, Sunnyvale, Calif.) was added a DMSO solution of a compound of the present invention to a final concentration of 30 μM. The resulting mixture was incubated at 30° C. for 10 min. The reaction was initiated by the addition of 10 μL of Aurora-2 stock solution to give a final concentration of 70 nM in the assay. The rates of reaction were obtained by monitoring absorbance at 340 nm over a 5 minute read time at 30° C. using a BioRad Ultramark plate reader (Hercules, Calif.). The Ki values were determined from the rate data as a function of inhibitor concentration.

GSK-3β (AA 1-420) = target: T2, GSK-3β (AA 1-420) (Homo sapiens, UniProt P49841); assay: Ki determination for the inhibition of GSK-3 (coupled enzyme system); type: biochemical; conditions: 20 μM ATP, 20 nM GSK-3β, 30° C.
T2 construct: GSK-3β (AA 1-420)
T2 sequence (P49841 whole entry, the tested form may be a part): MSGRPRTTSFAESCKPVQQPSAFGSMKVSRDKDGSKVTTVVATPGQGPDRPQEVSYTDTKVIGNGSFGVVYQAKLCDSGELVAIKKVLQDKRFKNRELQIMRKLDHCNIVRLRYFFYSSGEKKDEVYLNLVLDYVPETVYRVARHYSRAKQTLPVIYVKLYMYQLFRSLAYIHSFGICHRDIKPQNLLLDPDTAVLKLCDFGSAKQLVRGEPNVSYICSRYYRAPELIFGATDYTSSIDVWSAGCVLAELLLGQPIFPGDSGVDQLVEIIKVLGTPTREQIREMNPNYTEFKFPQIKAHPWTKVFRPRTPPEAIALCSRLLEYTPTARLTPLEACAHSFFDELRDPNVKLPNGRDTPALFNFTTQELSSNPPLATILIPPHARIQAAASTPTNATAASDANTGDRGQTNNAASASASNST
Experimental: Compounds were screened for their ability to inhibit GSK-3β (AA 1-420) activity using a standard coupled enzyme system (Fox et al. (1998) Protein Sci. 7, 2249). Reactions were carried out in a solution containing 100 mM HEPES (pH 7.5), 10 mM MgCl2, 25 mM NaCl, 300 μM NADH, 1 mM DTT and 1.5% DMSO. Final substrate concentrations in the assay were 20 μM ATP (Sigma Chemicals, St Louis, Mo.) and 300 μM peptide (HSSPHQS (PO3H2) EDEEE, American Peptide, Sunnyvale, Calif.). Reactions were carried out at 30° C. and 20 nM GSK-3β. Final concentrations of the components of the coupled enzyme system were 2.5 mM phosphoenolpyruvate, 300 μM NADH, 30 μg/ml pyruvate kinase and 10 μg/ml lactate dehydrogenase.
An assay stock buffer solution was prepared containing all of the reagents listed above with the exception of ATP and the test compound of interest. The assay stock buffer solution (175 μl) was incubated in a 96 well plate with 5 μl of the test compound of interest at final concentrations spanning 0.002 μM to 30 μM at 30° C. for 10 min. […] The reaction was initiated by the addition of 20 μl of ATP (final concentration 20 μM). Rates of reaction were obtained using a Molecular Devices Spectramax plate reader (Sunnyvale, Calif.) over 10 min at 30° C. The Ki values were determined from the rate data as a function of inhibitor concentration.

SMILES | Ki (Aurora-2) [µM] | Ki (GSK-3β (AA 1-420)) [µM]
c1ccc2cc(Oc3nc(Nc4cc(C5CC5)[nH]n4)cc(N4CCOCC4)n3)ccc2c1 [IIIb-7] | 0.1 to 1 | 0.1 to 1
CCc1cc(Nc2cc(C)[nH]n2)nc(Nc2ccc(Cl)cc2)n1 [IIIc-12, [2-(4-Chlorophenyl)amino-6-ethyl-pyrimidin-4-yl]-(5-methyl-2H-pyrazol-3-yl)-amine] | < 0.1 | < 0.1
FC(F)(F)c1ccccc1Nc1nc(Nc2n[nH]c3ccccc23)c2ccccc2n1 [IIc-76, (1H-Indazol-3-yl)-[2-(2-trifluoromethylphenylamino)-quinazolin-4-yl]-amine] | 1 to 10 | 0.1 to 1
Cc1cc(Nc2cc(-c3ccccc3)nc(Oc3ccc(NC(=O)C4CC4)cc3)n2)n[nH]1 [IIIb-16] | 0.1 to 1 | 0.1 to 1
CN1CCN(c2cc(Nc3cc(C4CC4)[nH]n3)nc(Oc3ccc4ccccc4c3)n2)CC1 [IIIb-8] | 1 to 10 | –
COc1ccc(Nc2nc(Nc3cc(C)[nH]n3)c3ccccc3n2)cc1-c1ccccc1 [IIc-58, [2-(2-Methoxybiphenyl-5-ylamino)-quinazolin-4-yl]-(5-methyl-2H-pyrazol-3-yl)-amine] | < 0.1 | 1 to 7
c1ccc(-c2cc(Nc3cc(C4CC4)[nH]n3)nc(Oc3ccc4ccccc4c3)n2)cc1 [IIIb-1] | 0.1 to 1 | –
Cc1cc(Nc2nc(COc3ccc(Cl)cc3)nc3c2CCCC3)n[nH]1 [IId-6, [2-(4-Chlorophenoxymethyl)-5,6,7,8-tetrahydro-quinazolin-4-yl]-(5-methyl-2H-pyrazol-3-yl)-amine] | 0.1 to 1 | 0.1 to 1
Cc1cc(Nc2cc(N3CCOCC3)nc(SCc3ccc4ccccc4c3)n2)n[nH]1 [IIIa-42, (5-Methyl-2H-pyrazol-3-yl)-[6-morpholin-4-yl-2-(naphthalene-2-ylmethylsulfanyl)-pyrimidin-4-yl]-amine] | 1 to 10 | 0.1 to 1
Cc1cc(Nc2cc(-c3ccccc3)[nH]n2)nc(Nc2ccc(Cl)cc2)n1 [IIIc-11, [2-(4-Chlorophenyl)amino-6-methyl-pyrimidin-4-yl]-(5-phenyl-2H-pyrazol-3-yl)-amine] | 0.1 to 1 | < 0.1
Cc1cc(Nc2cc(-c3c(C)cccc3C)nc(Oc3ccc4ccccc4c3)n2)n[nH]1 [IIIb-9] | 1 to 10 | –
COC(=O)c1cccc(Oc2nc(Nc3cc(C4CC4)[nH]n3)cc(-c3ccccc3)n2)c1 [IIIb-2] | 0.1 to 1 | –
CC(=O)Nc1ccc(Sc2nc(Nc3cc(C)[nH]n3)c3ccc(NO)cc3n2)cc1 [IIa-56, [2-(4-Acetamido-phenylsulfanyl)-7-hydroxyaminoquinazolin-4-yl]-(5-methyl-2H-pyrazol-3-yl)-amine] | < 0.1 | –
CC(=O)Nc1ccc(Sc2nc(Nc3cc(C)[nH]n3)c3ccc([N+](=O)[O-])cc3n2)cc1 [IIa-53, [2-(4-Acetamido-phenylsulfanyl)-7-nitroquinazolin-4-yl]-(5-methyl-2H-pyrazol-3-yl)-amine] | < 0.1 | –
Clc1ccccc1Nc1nc(Nc2n[nH]c3ccccc23)c2ccccc2n1 [IIc-75, [2-(2-Chloro-phenyl)-amino-quinazolin-4-yl]-(1H-indazol-3-yl)-amine] | 1 to 10 | 0.1 to 1
COc1ccc(Sc2nc(Nc3cc(C4CC4)[nH]n3)c3ccccc3n2)cc1OC [IIa-25, (5-Cyclopropyl-2H-pyrazol-3-yl)-[2-(3,4-dimethoxyphenylsulfanyl)-quinazolin-4-yl]-amine] | < 0.1 | 1 to 7
COc1cccc(Nc2nc(Nc3cc(C)[nH]n3)c3ccccc3n2)c1 [IIc-56, [2-(3-Methoxyphenylamino)-quinazolin-4-yl]-(5-methyl-2H-pyrazol-3-yl)-amine] | < 0.1 | 0.1 to 1
CCc1cc(Nc2cc(C)[nH]n2)nc(C(C)(C)c2ccccc2)n1 [IIId-20] | 0.1 to 1 | < 0.1
CSc1nc(Nc2cc(C)[nH]n2)cc(N2CCN(C)CC2)n1 [IIIa-14, [6-(4-Methylpiperazin-1-yl)-2-methylsulfanyl-pyrimidin-4-yl]-(5-methyl-2H-pyrazol-3-yl)-amine] | 0.1 to 1 | –
COc1nc(Nc2cc(C)[nH]n2)cc(N2CCN(C)CC2)n1 [IIIb-14] | 1 to 10 | < 0.1
